Assay results: patent US11512097B2, “Heterocyclic compounds as Delta-5 desaturase inhibitors and methods of use” (Amgen Inc., priority 2019, dated 2022)

Tested on: Diet-Induced Obese (DIO) mice
Test: Assessment of D5D inhibitor in Diet-Induced Obese (DIO) mice
Assay type: in vivo, Male C57BL/6J DIO mice
Conditions: for Fat mass / Lean mass: day 78, EchoMRI; for Blood glucose: day 81, non-fasted; for AA / DGLA: day 81, non-fasted plasma; for Body weight / Liver weights / epididymal WAT / inguinal WAT / mesenteric WAT: day 84; for Adiponectin / Cholesterol / Insulin / LDL cholesterol / Leptin / Resisten / Triglycerides: day 84, 4-hour fasted plasma
Description: Assessment of D5D Inhibitor in Diet-Induced Obese (DIO) Mice
Male C57BL/6J DIO mice (Jackson Laboratories, Stock No.: 380050) were fed high-fat diet (Research Diets, Inc., D12492) for 12 weeks. All animals were given free access to water and chow. Animals were acclimated to per os dosing for 3 days prior to the start of the experiment. Animals were randomized on body weight, fat mass, lean mass, and blood glucose concentrations in to groups of 8 to 10 animals per group. Animals were twice daily dosed per os with either: vehicle (2% hydroxypropyl methylcellulose and 1% tween 80 in water), Example 2 at 10 mg/kg, or 30 mg/kg (formulated in 2% hydroxypropyl methylcellulose and 1% tween 80 in water), or Example 45 at 3 mg/kg, or 10 mg/kg (formulated in 2% hydroxypropyl methylcellulose and 1% tween 80 in water). Three-day average (Example 2) or daily average (Example 45) food consumption was measured at the indicated times as shown in Table 17 and Table 18. Body composition (EchoMRI) was determined on day 78 for Example 2 and day 22 for Example 45. For Example 2, a non-fasted blood collection was performed on day 81; blood glucose was immediately measured, and plasma samples created from the remaining blood and used to measure DGLA and AA concentrations. On day 84, a 4-hour fasted blood collection was performed, and plasma samples were created from the blood and used to measure cholesterol, triglycerides, low-density lipoprotein (LDL) cholesterol, insulin, and adipokine (adiponectin, leptin, and resistin) levels. For Example 45, 4 hour fasted blood samples were collected on day 25 and blood glucose was measured immediately and the plasma samples created from the remaining blood were used to measure cholesterol, triglycerides, LDL cholesterol, insulin, DGLA and AA concentration. At the end of the studies, liver, epididymal white adipose tissue, inguinal white adipose tissue, mesenteric (only Example 2) white adipose tissue weights were recorded. Data was analyzed using GraphPad Prism v 7.04.
The D5D inhibitor dose-dependently led to weight loss over the course of the experiment (Table 17 and Table 18) compared to vehicle controls. Consistently fat mass was reduced, along with lower inguinal, epididymal and mesenteric white adipose tissue (WAT) weights at necropsy. Blood glucose and plasma insulin levels were both reduced by the D5D inhibitor, along with reductions in plasma cholesterol and triglycerides. Evidence of target engagement was established by observing increases in plasma DGLA and decreases in plasma AA.

[1] = Example 2 10 mg/kg twice daily per os
[2] = Example 2 30 mg/kg twice daily per os

In the case of `Cc1nn2c(=O)c(-c3cnn(CC(F)(F)C(F)(F)F)c3)c(C(F)(F)F)nc2s1` [Example 2, 2-methyl-6-[1-(2,2,3,3,3-pentafluoropropyl)-1H-pyrazol-4-yl]-7-(trifluoromethyl)-5H-[1,3,4]thiadiazolo[3,2-a]pyrimidin-5-one], the Fat mass [1] is reported as 11.4 ± 0.6 g, the Lean mass [1] is reported as 26.4 ± 0.6 g and the Blood glucose [1] is reported as 165.3 ± 4.6 mg/dL. The AA [1] was 14.5 ± 0.9 µg/mL, the DGLA [1] was 167.8 µg/mL and the Body weight [1] was 38.1 ± 1.0 g. The Liver weights [1] was 3.0 ± 0.2 g, the “epididymal WAT” value [1] was 1.2 ± 0.1 g and the “inguinal WAT” value [1] was 1.2 ± 0.1 g. The “mesenteric WAT” value [1] was 0.4 ± 0.0 g, the Adiponectin [1] was 48.3 ± 17.7 ng/mL and the Cholesterol [1] was 224.5 ± 7.3 mg/dL. It also gave an Insulin [1] of 1.8 ± 0.3 ng/mL, an LDL cholesterol [1] of 85.9 ± 3.8 mg/dL and a Leptin [1] of 10.7 ± 3.6 ng/mL. The Resisten [1] was 0.9 ± 0.2 ng/mL, the Triglycerides [1] was 14.3 ± 1.2 mg/dL and the Food consumption (Example 2 10 mg/kg twice daily per os, days 0-2, three-day average) was 2.5 ± 0.2 g/day. The Food consumption (Example 2 10 mg/kg twice daily per os, days 70-72, three-day average) was 2.5 ± 0.1 g/day, the Fat mass [2] was 5.7 ± 0.6 g and the Lean mass [2] was 26.1 ± 0.4 g. For the same molecule, the Blood glucose [2] was 152.1 mg/dL, the AA [2] was 10.7 ± 0.6 µg/mL and the DGLA [2] was 137.7 µg/mL. For the same molecule, the Body weight [2] was 32.3 ± 0.9 g, the Liver weights [2] was 3.2 ± 0.1 g and the “epididymal WAT” value [2] was 0.75 ± 0.1 g. For the same molecule, the “inguinal WAT” value [2] was 0.5 ± 0.1 g, the “mesenteric WAT” value [2] was 0.2 ± 0.0 g and the Adiponectin [2] was 51.0 ± 24.4 ng/mL. The Cholesterol [2] was 207.5 mg/dL, the Insulin [2] was 1.4 ± 0.2 ng/mL and the LDL cholesterol [2] was 80.6 ± 3.9 mg/dL. It also gave a Leptin [2] of 3.2 ± 1.6 ng/mL, a Resisten [2] of 0.7 ± 0.2 ng/mL and a Triglycerides [2] of 12.8 ± 1.0 mg/dL. The Food consumption (Example 2 30 mg/kg twice daily per os, days 0-2, three-day average) was 2.5 ± 0.2 g/day and the Food consumption (Example 2 30 mg/kg twice daily per os, days 70-72, three-day average) was 2.7 ± 0.1 g/day.
